Data set [1] concerns Duck hepatitis B virus. The data set is described as follows: Antiviral activity against Duck hepatitis B virus (DHBV) infected duck assessed as viral DNA level at 10 mg/kg, po for 30 days measured on day 15 post initial treatment by RT-PCR analysis. On the set-up: dose 10 mg/kg. In kind it is functional, organism-based.
Data set [2] concerns HepG2. In words: Cytotoxicity against Homo sapiens (human) HepG2 cells at <1000 uM after 72 hr by MTT assay. In kind it is cell-based. The settings on record: hepg2, 72 h. For orientation: Tetrazolium assays rely on reduction of a dye to a coloured formazan, in cell work by metabolically active cells.
The subject of data set [3] is Duck hepatitis B virus. In words: Antiviral activity against Duck hepatitis B virus (DHBV) infected duck assessed as reduction in viral DNA level at 10 mg/kg, po for 30 days measured on day 15 post termination of treatment by RT-PCR analysis. In kind it is functional, organism-based. On the set-up: dose 10 mg/kg.
The test system of data set [4] is Duck hepatitis B virus. In words: Antiviral activity against Duck hepatitis B virus (DHBV) infected duck assessed as reduction in viral DNA level at 10 mg/kg, po for 30 days measured on day 30 by RT-PCR analysis. Type of data set: functional, organism-based. Set-up: dose 10 mg/kg.
Data set [5] has as its system Duck hepatitis B virus. In words: Antiviral activity against Duck hepatitis B virus (DHBV) infected duck assessed as reduced inflammation in liver at 10 mg/kg, po for 30 days. In kind it is functional, organism-based. Set-up: dose 10 mg/kg.
Data set [6] concerns Duck hepatitis B virus. The data set is described as follows: Antiviral activity against Duck hepatitis B virus (DHBV) infected duck assessed as liver weight at 10 mg/kg, po for 30 days (reference value: 1.25 g). Type of data set: functional.
Data set [7] concerns HepG2. In words: Cytotoxicity against Homo sapiens (human) HepG2 assessed as mitochondrial DNA level at 0.1 to 10 umol for 8 days by dot blot assay. Type of data set: cell-based. The settings on record: hepg2, 192 h.
In data set [8] the test system is HepG2. The data set is described as follows: Cytotoxicity against Homo sapiens (human) HepG2 assessed as mitochondrial DNA level for 8 days by dot blot assay. Type of data set: cell-based. The following applies: hepg2, 192 h.
Data set [9] deals with Duck hepatitis B virus. In words: Antiviral activity against Duck hepatitis B virus (DHBV) infected duck assessed as liver weight at 50 mg/kg, po for 30 days (reference value: 1.25 g). Type of data set: functional.
For data set [10], the system named is Duck hepatitis B virus. In words: Antiviral activity against Duck hepatitis B virus (DHBV) infected duck assessed as reduced inflammation in liver at 2 to 50 mg/kg, po for 30 days. Type of data set: functional, organism-based.
Data set [11] relates to Duck hepatitis B virus. The data set is described as follows: Antiviral activity against Duck hepatitis B virus (DHBV) infected po dosed duck assessed as reduction in viral DNA level administered for 30 days measured on day 15 post termination of treatment by RT-PCR analysis. In kind it is functional, organism-based.
Data set [12] relates to Duck hepatitis B virus. The data set is described as follows: Antiviral activity against Duck hepatitis B virus (DHBV) infected duck assessed as liver weight at 2 mg/kg, po for 30 days (reference value: 1.25 g). Type of data set: functional.
Data set [13] concerns Duck hepatitis B virus. The data set is described as follows: Antiviral activity against Duck hepatitis B virus (DHBV) infected po dosed duck assessed as reduction in viral DNA level administered for 30 days measured on day 30 by RT-PCR analysis. In kind it is functional, organism-based.
Data set [14] concerns Duck hepatitis B virus. The data set is described as follows: Antiviral activity against Duck hepatitis B virus (DHBV) infected po dosed duck assessed as reduction in viral DNA level administered for 30 days measured on day 15 post initial treatment by RT-PCR analysis. Type of data set: functional, organism-based.
In data set [15] the test system is Duck hepatitis B virus. In words: Antiviral activity against Duck hepatitis B virus (DHBV) infected duck assessed as reduction in viral DNA level at 2 to 50 mg/kg, po for 30 days measured on day 15 post termination of treatment by RT-PCR analysis. In kind it is functional, organism-based.
In data set [16] the test system is Duck hepatitis B virus. In words: Antiviral activity against Duck hepatitis B virus (DHBV) infected duck assessed as reduction in viral DNA level at 2 to 50 mg/kg, po for 30 days measured on day 30 by RT-PCR analysis. In kind it is functional, organism-based.
Data set [17] relates to Duck hepatitis B virus. In words: Antiviral activity against Duck hepatitis B virus (DHBV) infected duck assessed as reduction in viral DNA level at 2 to 50 mg/kg, po for 30 days measured on day 15 post initial treatment by RT-PCR analysis. Type of data set: functional, organism-based.
For data set [18], the system named is Duck hepatitis B virus. The data set is described as follows: Antiviral activity against Duck hepatitis B virus (DHBV) infected duck assessed as viral DNA level at 2 to 50 mg/kg, po for 30 days measured on day 15 post initial treatment by RT-PCR analysis. In kind it is functional, organism-based.

Calls of active or inactive are those of the source. The calls are words filed in the database; no cut-off is given here.

For `CC(C)(C)C(=O)OCOP(=O)(COCCn1cnc2c(N)ncnc21)OCOC(=O)C(C)(C)C` [ADEFOVIR DIPIVOXIL], the result in the data set on Duck hepatitis B virus [1] was inactive. Besides, the Activity entry is on record as “Non-toxic” with HepG2 [2] and 0.8 g in the data set on Duck hepatitis B virus [6]. Also, the inhibition result in the data set with Duck hepatitis B virus [3], in the data set on Duck hepatitis B virus [4] and with Duck hepatitis B virus [5] was “Active” in each case.

`Nc1ccn([C@H]2CC[C@@H](CO)O2)c(=O)n1` [ZALCITABINE]: the Activity result is “Toxic” in the data set with HepG2 [7] and “Dose-dependent effect” in the data set on HepG2 [8].

For the compound `CSc1ccc(Sc2nc(N)nc3c2ncn3CCOCP(=O)(OCC(F)(F)F)OCC(F)(F)F)cc1`, the Activity result in the data set with HepG2 [2] is on record as “Non-toxic”; in the data set on HepG2 [7], “Non-toxic”; in the data set with Duck hepatitis B virus [9], 0.55 g; with Duck hepatitis B virus [6], 0.75 g; with Duck hepatitis B virus [12], 0.8 g. In addition, the inhibition entry with Duck hepatitis B virus [10] was “Active”. The inhibition entry in the data set on Duck hepatitis B virus [11], in the data set with Duck hepatitis B virus [13] and in the data set with Duck hepatitis B virus [14] was “Dose-dependent effect” in each case.

Take `COc1ccc(Sc2nc(N)nc3c2ncn3CCOCP(=O)(OCC(F)(F)F)OCC(F)(F)F)cc1F`: the Activity entry in the data set with HepG2 [2] is “Non-toxic”; in the data set on HepG2 [7] it was “Non-toxic”; with Duck hepatitis B virus [9], 0.85 g; with Duck hepatitis B virus [6], 0.8 g; in the data set with Duck hepatitis B virus [12] it was 0.8 g. For the same compound, the inhibition entry with Duck hepatitis B virus [15], in the data set on Duck hepatitis B virus [10], with Duck hepatitis B virus [16] and with Duck hepatitis B virus [17] was “Active” in each case.

Consider `CC(Cn1cnc2c(Sc3ccc4c(c3)CCO4)nc(N)nc21)OCP(=O)(OCC(F)(F)F)OCC(F)(F)F` (stereo unspecified), for which the Activity result in the data set on HepG2 [2] is given as “Non-toxic”; in the data set with HepG2 [7] it was “Non-toxic”; in the data set with Duck hepatitis B virus [9] it was 0.95 g; in the data set with Duck hepatitis B virus [6], 0.75 g; in the data set with Duck hepatitis B virus [12] it was 0.9 g. Also, the inhibition result in the data set with Duck hepatitis B virus [15], in the data set with Duck hepatitis B virus [10], with Duck hepatitis B virus [16] and in the data set on Duck hepatitis B virus [17] was “Active” throughout. Moreover, in the data set on Duck hepatitis B virus [18], the outcome was inactive.

The record behind these values is ChEMBL document CHEMBL3046955, “Antiviral effects of three novel derivatives of adefovir on the replication of hepatitis B virus” (Med Chem Res, 2012).
